Measurements published in ChEMBL document CHEMBL1156556, “Knowledge-based design of 7-azaindoles as selective B-Raf inhibitors” (Bioorg Med Chem Lett, 2008).
Values belong to the molecule of their own block, whether it stands above or below them. Activity calls are given as the source filed them. The calls are words filed in the database; no cut-off is given here.

Assays:
[1] = target: Serine/threonine-protein kinase B-raf (Homo sapiens, UniProt P15056); assay: Inhibition of B-Raf by fluorescence anisotropy binding assay
Serine/threonine-protein kinase B-raf, sequence (P15056 whole entry): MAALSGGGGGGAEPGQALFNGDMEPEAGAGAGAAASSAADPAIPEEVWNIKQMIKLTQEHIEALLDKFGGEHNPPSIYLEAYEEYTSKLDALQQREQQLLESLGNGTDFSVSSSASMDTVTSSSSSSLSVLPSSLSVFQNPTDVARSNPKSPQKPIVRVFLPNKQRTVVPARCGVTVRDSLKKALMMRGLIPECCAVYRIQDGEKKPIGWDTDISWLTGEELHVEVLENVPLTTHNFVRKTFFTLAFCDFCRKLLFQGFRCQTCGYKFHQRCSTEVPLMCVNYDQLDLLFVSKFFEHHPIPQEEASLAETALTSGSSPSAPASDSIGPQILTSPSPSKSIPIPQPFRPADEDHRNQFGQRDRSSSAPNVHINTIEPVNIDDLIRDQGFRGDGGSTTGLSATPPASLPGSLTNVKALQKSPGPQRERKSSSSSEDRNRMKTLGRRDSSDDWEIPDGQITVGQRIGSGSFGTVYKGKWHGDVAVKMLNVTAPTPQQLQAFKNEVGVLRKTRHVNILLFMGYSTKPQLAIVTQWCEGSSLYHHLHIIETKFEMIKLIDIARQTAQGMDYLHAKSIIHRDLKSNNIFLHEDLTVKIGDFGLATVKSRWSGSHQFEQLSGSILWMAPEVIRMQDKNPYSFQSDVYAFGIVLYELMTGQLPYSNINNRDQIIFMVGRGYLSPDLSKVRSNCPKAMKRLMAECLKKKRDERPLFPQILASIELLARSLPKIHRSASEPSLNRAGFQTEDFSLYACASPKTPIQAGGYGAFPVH

Cytochrome P450 2C9 = Cytochrome P450 2C9 (Homo sapiens, UniProt P11712); assay: Inhibition of CYP2C9; format: ADME
Cytochrome P450 2C9, sequence (P11712 whole entry): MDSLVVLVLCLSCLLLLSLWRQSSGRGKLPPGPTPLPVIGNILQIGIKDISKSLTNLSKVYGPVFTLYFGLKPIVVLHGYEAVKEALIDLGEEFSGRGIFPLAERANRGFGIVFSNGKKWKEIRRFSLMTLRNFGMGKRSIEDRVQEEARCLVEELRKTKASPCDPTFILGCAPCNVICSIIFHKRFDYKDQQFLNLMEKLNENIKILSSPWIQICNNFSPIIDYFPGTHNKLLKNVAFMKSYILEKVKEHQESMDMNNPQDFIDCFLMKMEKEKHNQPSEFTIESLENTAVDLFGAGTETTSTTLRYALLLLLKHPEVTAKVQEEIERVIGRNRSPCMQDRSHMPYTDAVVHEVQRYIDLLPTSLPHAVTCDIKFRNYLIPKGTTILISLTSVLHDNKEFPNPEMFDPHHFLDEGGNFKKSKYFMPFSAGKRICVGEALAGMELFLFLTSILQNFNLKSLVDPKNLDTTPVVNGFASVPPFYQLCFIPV

Cytochrome P450 2D6 = Cytochrome P450 2D6 (Homo sapiens, UniProt P10635); assay: Inhibition of CYP2D6; format: ADME
Cytochrome P450 2D6, sequence (P10635 whole entry): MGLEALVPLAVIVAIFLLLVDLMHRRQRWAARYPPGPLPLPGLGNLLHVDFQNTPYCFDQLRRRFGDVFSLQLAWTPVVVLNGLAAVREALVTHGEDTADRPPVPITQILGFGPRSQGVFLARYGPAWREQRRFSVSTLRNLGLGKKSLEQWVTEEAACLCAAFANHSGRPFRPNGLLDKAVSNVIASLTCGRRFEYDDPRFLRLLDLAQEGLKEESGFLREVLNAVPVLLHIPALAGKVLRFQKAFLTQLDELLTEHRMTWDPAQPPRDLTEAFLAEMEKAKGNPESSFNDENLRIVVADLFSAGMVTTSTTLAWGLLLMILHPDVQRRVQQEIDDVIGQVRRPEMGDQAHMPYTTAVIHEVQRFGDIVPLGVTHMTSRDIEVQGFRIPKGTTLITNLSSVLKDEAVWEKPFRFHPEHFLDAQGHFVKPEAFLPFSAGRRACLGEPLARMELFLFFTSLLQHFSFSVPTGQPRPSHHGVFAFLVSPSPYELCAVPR

[2] = target: RAC-alpha serine/threonine-protein kinase (Homo sapiens) (UniProt P31749); assay: Inhibition of AKT1 at 30 uM
RAC-alpha serine/threonine-protein kinase (Homo sapiens), sequence (P31749 whole entry): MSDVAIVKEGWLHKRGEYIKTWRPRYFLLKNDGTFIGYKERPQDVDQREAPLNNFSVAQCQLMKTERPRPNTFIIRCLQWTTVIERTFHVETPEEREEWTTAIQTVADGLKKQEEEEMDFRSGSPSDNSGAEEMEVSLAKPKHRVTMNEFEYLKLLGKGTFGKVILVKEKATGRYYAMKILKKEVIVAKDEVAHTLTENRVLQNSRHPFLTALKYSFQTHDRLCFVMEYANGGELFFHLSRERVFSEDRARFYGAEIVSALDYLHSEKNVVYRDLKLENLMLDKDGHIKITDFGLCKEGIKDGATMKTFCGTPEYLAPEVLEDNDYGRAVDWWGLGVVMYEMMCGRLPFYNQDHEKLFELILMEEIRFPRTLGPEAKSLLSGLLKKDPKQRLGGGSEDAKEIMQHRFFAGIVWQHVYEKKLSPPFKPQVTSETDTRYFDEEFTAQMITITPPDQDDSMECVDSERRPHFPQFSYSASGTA

[3] = target: Tyrosine-protein kinase BTK (Homo sapiens) (UniProt Q06187); assay: Inhibition of BTK at 30 uM
Tyrosine-protein kinase BTK (Homo sapiens), sequence (Q06187 whole entry): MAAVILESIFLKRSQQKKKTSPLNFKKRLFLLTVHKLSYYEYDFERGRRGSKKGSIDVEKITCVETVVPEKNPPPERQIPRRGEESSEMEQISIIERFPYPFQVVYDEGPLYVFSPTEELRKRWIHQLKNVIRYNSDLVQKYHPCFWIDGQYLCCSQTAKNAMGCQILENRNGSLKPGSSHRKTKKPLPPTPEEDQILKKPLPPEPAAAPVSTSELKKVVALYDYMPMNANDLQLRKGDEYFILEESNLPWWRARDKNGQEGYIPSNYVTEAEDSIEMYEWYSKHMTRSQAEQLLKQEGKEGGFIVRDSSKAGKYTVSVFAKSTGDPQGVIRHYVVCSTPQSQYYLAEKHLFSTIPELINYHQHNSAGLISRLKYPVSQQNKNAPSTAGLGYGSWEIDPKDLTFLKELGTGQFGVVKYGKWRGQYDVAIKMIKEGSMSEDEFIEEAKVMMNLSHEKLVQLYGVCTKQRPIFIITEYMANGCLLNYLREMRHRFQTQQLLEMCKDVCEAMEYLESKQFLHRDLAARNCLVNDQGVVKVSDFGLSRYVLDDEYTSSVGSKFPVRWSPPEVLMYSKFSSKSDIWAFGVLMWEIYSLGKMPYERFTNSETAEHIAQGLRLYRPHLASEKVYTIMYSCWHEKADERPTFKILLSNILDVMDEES

[4] = target: Cyclin-dependent kinase 2 (Homo sapiens) (UniProt P24941); assay: Inhibition of CDK2 at 30 uM
[5] = target: Receptor tyrosine-protein kinase erbB-4 (Homo sapiens) (UniProt Q15303); assay: Inhibition of ERBB4 at 30 uM
Receptor tyrosine-protein kinase erbB-4 (Homo sapiens), sequence (Q15303 whole entry): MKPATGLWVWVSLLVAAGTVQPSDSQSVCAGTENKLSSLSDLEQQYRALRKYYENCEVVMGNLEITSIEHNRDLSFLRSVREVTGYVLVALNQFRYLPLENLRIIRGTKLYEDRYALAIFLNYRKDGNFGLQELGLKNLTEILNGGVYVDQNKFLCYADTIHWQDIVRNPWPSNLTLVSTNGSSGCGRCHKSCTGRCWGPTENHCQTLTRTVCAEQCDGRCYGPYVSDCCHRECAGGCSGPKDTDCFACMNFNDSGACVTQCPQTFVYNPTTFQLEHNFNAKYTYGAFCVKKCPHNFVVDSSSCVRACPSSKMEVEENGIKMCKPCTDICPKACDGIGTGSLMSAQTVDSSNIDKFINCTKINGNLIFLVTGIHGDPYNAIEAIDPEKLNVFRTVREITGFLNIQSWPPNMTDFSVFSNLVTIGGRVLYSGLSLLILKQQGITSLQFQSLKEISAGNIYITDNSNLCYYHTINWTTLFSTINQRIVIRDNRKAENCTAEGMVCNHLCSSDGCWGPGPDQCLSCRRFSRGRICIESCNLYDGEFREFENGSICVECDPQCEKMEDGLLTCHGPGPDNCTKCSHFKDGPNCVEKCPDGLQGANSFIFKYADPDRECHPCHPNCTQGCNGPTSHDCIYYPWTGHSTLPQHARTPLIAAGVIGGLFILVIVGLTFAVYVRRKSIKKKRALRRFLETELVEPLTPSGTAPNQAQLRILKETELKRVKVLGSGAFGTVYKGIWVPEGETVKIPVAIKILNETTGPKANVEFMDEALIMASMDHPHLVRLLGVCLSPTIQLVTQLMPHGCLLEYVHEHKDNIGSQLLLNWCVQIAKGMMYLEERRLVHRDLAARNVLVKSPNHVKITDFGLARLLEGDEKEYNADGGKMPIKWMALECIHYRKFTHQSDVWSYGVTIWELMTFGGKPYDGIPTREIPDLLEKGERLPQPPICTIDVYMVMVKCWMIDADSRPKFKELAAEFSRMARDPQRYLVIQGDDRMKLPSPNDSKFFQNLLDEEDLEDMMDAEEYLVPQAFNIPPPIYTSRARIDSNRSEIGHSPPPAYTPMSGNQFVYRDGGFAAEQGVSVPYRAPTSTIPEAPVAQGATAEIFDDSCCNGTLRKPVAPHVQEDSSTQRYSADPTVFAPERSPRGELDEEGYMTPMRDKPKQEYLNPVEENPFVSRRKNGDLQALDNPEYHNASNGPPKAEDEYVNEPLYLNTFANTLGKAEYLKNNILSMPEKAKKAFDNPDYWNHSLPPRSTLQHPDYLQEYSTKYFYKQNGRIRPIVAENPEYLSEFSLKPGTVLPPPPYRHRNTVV

[6] = target: Mitogen-activated protein kinase 1 (Homo sapiens) (UniProt P28482); assay: Inhibition of ERK2 at 30 uM
Mitogen-activated protein kinase 1 (Homo sapiens), sequence (P28482 whole entry): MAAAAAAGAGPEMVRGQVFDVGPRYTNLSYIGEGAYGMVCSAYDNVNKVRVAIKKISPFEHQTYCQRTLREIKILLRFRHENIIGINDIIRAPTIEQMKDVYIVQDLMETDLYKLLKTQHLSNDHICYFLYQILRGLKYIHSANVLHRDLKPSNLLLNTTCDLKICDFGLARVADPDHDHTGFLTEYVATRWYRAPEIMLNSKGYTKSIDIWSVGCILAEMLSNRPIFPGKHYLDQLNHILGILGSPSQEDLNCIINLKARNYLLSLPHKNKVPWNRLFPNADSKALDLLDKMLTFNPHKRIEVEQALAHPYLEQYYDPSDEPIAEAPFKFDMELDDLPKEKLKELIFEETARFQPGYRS

[7] = target: Glycogen synthase kinase-3 beta (Homo sapiens) (UniProt P49841); assay: Inhibition of GSK3b at 30 uM
Glycogen synthase kinase-3 beta (Homo sapiens), sequence (P49841 whole entry, looked up): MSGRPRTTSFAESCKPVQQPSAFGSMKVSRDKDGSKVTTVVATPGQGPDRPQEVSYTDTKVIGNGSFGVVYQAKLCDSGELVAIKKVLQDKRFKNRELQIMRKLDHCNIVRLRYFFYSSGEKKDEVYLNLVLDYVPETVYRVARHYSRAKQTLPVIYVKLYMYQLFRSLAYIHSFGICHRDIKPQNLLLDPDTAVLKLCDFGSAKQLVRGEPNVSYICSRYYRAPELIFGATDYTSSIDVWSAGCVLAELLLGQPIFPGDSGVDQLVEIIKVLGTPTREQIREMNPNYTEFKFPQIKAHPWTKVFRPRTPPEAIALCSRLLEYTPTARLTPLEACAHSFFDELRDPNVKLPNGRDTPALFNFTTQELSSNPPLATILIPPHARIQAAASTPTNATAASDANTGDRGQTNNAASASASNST

[8] = target: Insulin-like growth factor 1 receptor (Homo sapiens) (UniProt P08069); assay: Inhibition of IGF1R at 30 uM
[9] = target: T1, Inhibitor of nuclear factor kappa-B kinase subunit beta (Homo sapiens) (UniProt O14920); assay: Inhibition of IKK2 at 30 uM
T1 sequence (whole entry): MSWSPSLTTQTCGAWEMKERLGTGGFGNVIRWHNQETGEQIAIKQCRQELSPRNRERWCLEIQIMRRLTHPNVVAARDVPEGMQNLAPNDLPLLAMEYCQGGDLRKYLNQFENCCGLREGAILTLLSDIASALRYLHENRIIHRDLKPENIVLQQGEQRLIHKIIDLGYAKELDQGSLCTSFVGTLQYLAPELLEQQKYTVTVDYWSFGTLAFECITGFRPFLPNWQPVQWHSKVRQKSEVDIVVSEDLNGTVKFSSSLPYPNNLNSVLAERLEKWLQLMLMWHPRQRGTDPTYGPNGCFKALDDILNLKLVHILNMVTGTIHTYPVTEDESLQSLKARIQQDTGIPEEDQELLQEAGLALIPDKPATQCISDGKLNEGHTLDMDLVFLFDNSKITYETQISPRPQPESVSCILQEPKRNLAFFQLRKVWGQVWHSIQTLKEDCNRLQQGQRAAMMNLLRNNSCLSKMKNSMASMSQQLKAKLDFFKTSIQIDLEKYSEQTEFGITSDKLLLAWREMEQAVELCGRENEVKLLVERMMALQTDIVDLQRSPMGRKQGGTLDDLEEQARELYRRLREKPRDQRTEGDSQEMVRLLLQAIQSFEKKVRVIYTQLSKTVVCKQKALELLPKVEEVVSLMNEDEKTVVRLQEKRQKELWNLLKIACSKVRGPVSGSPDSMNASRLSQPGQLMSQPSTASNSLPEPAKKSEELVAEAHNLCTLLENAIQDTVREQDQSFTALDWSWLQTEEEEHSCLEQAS

[10] = target: T2, Serine/threonine-protein kinase Sgk1 (Homo sapiens) (UniProt O00141); assay: Inhibition of SGK1 at 30 uM
T2 sequence (whole entry): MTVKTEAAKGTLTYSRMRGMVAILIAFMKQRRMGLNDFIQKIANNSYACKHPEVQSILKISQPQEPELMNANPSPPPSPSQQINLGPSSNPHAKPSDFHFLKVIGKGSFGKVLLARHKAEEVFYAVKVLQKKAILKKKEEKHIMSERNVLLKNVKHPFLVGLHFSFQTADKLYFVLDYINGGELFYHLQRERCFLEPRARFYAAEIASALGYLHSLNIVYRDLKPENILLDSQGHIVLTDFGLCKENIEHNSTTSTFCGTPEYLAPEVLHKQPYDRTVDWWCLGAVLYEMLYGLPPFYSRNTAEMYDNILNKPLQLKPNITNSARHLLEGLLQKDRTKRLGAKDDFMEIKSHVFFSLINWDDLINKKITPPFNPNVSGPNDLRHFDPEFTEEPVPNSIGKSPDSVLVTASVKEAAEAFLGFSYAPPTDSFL

[11] = target: T3, Tyrosine-protein kinase ZAP-70 (Homo sapiens) (UniProt P43403); assay: Inhibition of ZAP70 at 30 uM
T3 sequence (whole entry): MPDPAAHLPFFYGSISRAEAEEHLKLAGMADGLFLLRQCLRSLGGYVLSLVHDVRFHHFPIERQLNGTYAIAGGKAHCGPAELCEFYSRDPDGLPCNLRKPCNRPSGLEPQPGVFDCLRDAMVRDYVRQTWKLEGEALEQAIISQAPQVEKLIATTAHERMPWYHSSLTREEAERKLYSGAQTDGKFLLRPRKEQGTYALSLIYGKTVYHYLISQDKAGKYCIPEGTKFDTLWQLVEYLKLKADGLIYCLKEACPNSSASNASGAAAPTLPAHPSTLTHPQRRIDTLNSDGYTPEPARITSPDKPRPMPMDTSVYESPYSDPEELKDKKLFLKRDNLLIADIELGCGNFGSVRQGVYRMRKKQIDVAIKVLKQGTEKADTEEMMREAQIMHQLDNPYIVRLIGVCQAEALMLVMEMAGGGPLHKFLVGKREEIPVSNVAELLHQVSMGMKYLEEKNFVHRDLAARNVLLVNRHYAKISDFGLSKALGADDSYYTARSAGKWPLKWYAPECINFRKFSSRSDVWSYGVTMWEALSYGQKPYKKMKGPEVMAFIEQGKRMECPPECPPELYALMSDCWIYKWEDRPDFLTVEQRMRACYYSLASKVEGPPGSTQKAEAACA

[12] = Selectivity for B-Raf over c-Met
[13] = Selectivity for B-Raf over VEGFR2
[14] = target: Tyrosine-protein kinase SYK (Homo sapiens) (UniProt P43405); assay: Inhibition of SYK at 30 uM

- IC50 [1]: 79.4 nM
Compound: CCn1cc(-c2ccnc3[nH]cc(Br)c23)c(-c2cccc(NC(=O)Nc3ccccc3)c2)n1

- IC50 [1]: 33.9 nM
Compound: CCOC(=O)c1cc2c(-c3cn(CC)nc3-c3cccc(NC(=O)Nc4ccccc4)c3)ccnc2[nH]1

Compound: CCn1cc(-c2ccnc3[nH]ccc23)c(-c2cccc(NC(=O)NC3CCCCC3)c2)n1
- IC50 [1]: 41.7 nM

- IC50 [1]: 3.9 nM
Compound: CCn1cc(-c2ccnc3[nH]ccc23)c(-c2cccc(NC(=O)Nc3cc(C(F)(F)F)ccc3F)c2)n1

Compound: CCn1cc(-c2ccnc3[nH]ccc23)c(-c2cccc(NC(=O)Nc3cccc(OC)c3)c2)n1
- IC50 [1]: 2.1 nM
- IC50 (Cytochrome P450 2C9): 316 nM
- IC50 (Cytochrome P450 2D6): 200 nM

- Activity [2]: inactive
- Activity [3]: inactive
- Activity [4]: inactive
- Activity [5]: inactive
- Activity [6]: inactive
- Activity [7]: inactive
- Activity [8]: inactive
- Activity [9]: inactive
- Activity [10]: inactive
- Activity [11]: inactive
- fold change (FC) [12]: 100
- fold change (FC) [13]: 100
- IC50 (Cytochrome P450 2C9): 1260 nM
- IC50 (Cytochrome P450 2D6): 5010 nM
- Activity [14]: inactive
Compound: CCn1cc(-c2ccnc3[nH]ccc23)c(-c2cccc(NC(=O)Nc3ccc(C(F)(F)F)cc3)c2)n1

- IC50 [1]: 5.4 nM
Compound: CCn1cc(-c2ccnc3[nH]ccc23)c(-c2cccc(NC(=O)Nc3ccc(Cl)c(C(F)(F)F)c3)c2)n1

- IC50 [1]: 45.7 nM
Compound: CCn1cc(-c2ccnc3[nH]c(C(=O)O)cc23)c(-c2cccc(NC(=O)Nc3ccccc3)c2)n1

- IC50 [1]: 25.7 nM
Compound: CCn1cc(-c2ccnc3[nH]ccc23)c(-c2cccc(NC(=O)Nc3c(F)cccc3F)c2)n1
